Patent US20240360087A1, “THERMODYNAMICALLY STABLE FORM OF SCO-101” (SCANDION ONCOLOGY A/S, priority 2021, published 2024)
“Also recorded” adds a separate entry of the source.

How the values were obtained:
Type in all cases: physicochemical
[1] = Dynamic vapour sorption (DVS), hygroscopicity; conditions: for mass gain at 90% relative humidity (DVS): 25° C.; for hygroscopicity (DVS), in words: RH up to 90%
Procedure: Approximately 10-20 mg of sample was placed into a mesh vapour sorption balance pan and loaded into a DVS Intrinsic or Advantage dynamic vapour sorption balance by Surface Measurement Systems. The sample was subjected to a ramping profile from 40-90% relative humidity (RH) at 10% increments, maintaining the sample at each step until a stable weight had been achieved (dm/dt 0.004%, minimum step length 30 minutes, maximum step length 120 minutes) at 25° C. After completion of the sorption cycle, the sample was dried using the same procedure to 0% RH and then a second sorption cycle back to 40% RH. Two cycles were performed. The weight change during the sorption/desorption cycles were plotted, allowing for the hygroscopic nature of the sample to be determined. XRPD analysis was then carried out on any solid retained.

[2] = Competitive slurry experiments (thermodynamic stability of solid forms); conditions: for thermodynamic stability of the solid form, in words: conclusion from competitive slurry experiments and thermal data; for Form/Pattern after slurrying for 3 days: 1:1 mixture with Form I, 40° C., XRPD
Procedure: The slurries were stirred at 40° C. for 3 days. After 3 days, the solids were filtered centrifugally and analysed by XRPD.

[3] = Storage at 40° C./75% RH in an open vial, XRPD; conditions: 3 days
Procedure: 200 mg SCO-101, Form III (Pattern 24) was placed at 40° C./75% RH in an open vial covered with tissue for 3 days.

[4] = Variable temperature XRPD (VT-XRPD) of solid form conversion; conditions: mixture of Form III and Form IV at 150° C.
[5] = saturated acetone:heptane (50:50% v/v)
[6] = saturated acetone:water (50:50% v/v)

Row | SMILES | mass gain at 90% relative humidity (DVS) ([1]; 90% RH) | hygroscopicity (DVS), in words [1] | hygroscopicity (DVS), in words ([1]; listed as crystal form I) | thermodynamic stability of the solid form, in words [2] | water absorbed at 90% RH (DVS) ([1]; 90% RH) | weight gain when increasing RH from 70% to 80% (DVS) ([1]; RH 70% to 80%, corresponds to monohydrate) | hygroscopicity (DVS), in words ([1]; listed as crystal form II) | Form/Pattern after slurrying for 3 days [2, 5] | Form/Pattern after slurrying for 3 days [2, 6] | solid form after storage (XRPD) [3] | temperature of complete transformation into Form IV (VT-XRPD) [4]
1 | O=C(Nc1cc(C(F)(F)F)cc(C(F)(F)F)c1)Nc1ccc(Br)cc1-c1nnn[nH]1 [Form I, N-[4-Bromo-2-(1H-1,2,3,4-tetrazol-5-yl)phenyl]-N′-[3,5-bis(trifluoromethyl)phenyl]urea] | no increase in mass | non-hygroscopic | non-hygroscopic | thermodynamically most stable polymorph; also recorded: thermodynamically stable polymorph | – | – | – | – | – | – | –
2 | O=C(Nc1cc(C(F)(F)F)cc(C(F)(F)F)c1)Nc1ccc(Br)cc1-c1nnn[nH]1 [Form II, N-[4-Bromo-2-(1H-1,2,3,4-tetrazol-5-yl)phenyl]-N′-[3,5-bis(trifluoromethyl)phenyl]urea] | approx 6% | takes up water to form a hydrate; also recorded: hygroscopic | – | metastable form | approx. 6 % (w/w) | 3% | hygroscopic | Form I | Form I | – | –
3 | O=C(Nc1cc(C(F)(F)F)cc(C(F)(F)F)c1)Nc1ccc(Br)cc1-c1nnn[nH]1 [Form III, N-[4-Bromo-2-(1H-1,2,3,4-tetrazol-5-yl)phenyl]-N′-[3,5-bis(trifluoromethyl)phenyl]urea] | – | – | – | – | – | – | – | – | – | Form IV, Pattern 29 | 155 °C
4 | O=C(Nc1cc(C(F)(F)F)cc(C(F)(F)F)c1)Nc1ccc(Br)cc1-c1nnn[nH]1 [Pattern 5, N-[4-Bromo-2-(1H-1,2,3,4-tetrazol-5-yl)phenyl]-N′-[3,5-bis(trifluoromethyl)phenyl]urea] | – | – | – | – | – | – | – | Form I | Form I | – | –
